Experimental data as given in PubChem BioAssay AID2060607 (Molecular Pharmacology Branch, DTP, NCI, 2025).

System: 876862-298-R-J1-PDC complex spheroids, viability % test/control
Assay: Anticancer human tumor 876862-298-R-J1-PDC patient-derived endometrial carcinoma cell line growth inhibition [CLK]
Details: for IC50: curve of first compound; for viability, T/C: stronger effect = lower value; active means viability on the fitted dose curve at most 10% of control; inactive means the rest
How it was run: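 Multi-cell-type spheroids combined patient-derived tumor cells with HUVEC endothelial cells and human mesenchymal stem cells. Paired agents were dosed in half-log steps down from about clinical Cmax, or from 10 microM where Cmax was unknown.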

[1] = second compound 0.0316 µM, first compound 0.0316 µM
[2] = second compound 0.0316 µM, first compound 0.1 µM
[3] = second compound 0.0316 µM, first compound 0.316 µM
[4] = second compound 0.0316 µM, first compound 1 µM
[5] = second compound 0.0316 µM, first compound 3.16 µM
[6] = second compound 0.0316 µM, first compound 10 µM
[7] = second compound 0.1 µM, first compound 0.0316 µM
[8] = second compound 0.1 µM, first compound 0.1 µM
[9] = second compound 0.1 µM, first compound 0.316 µM
[10] = second compound 0.1 µM, first compound 1 µM
[11] = second compound 0.1 µM, first compound 3.16 µM
[12] = second compound 0.1 µM, first compound 10 µM
[13] = second compound 0.316 µM, first compound 0.0316 µM
[14] = second compound 0.316 µM, first compound 0.1 µM
[15] = second compound 0.316 µM, first compound 0.316 µM
[16] = second compound 0.316 µM, first compound 1 µM
[17] = second compound 0.316 µM, first compound 3.16 µM
[18] = second compound 0.316 µM, first compound 10 µM
[19] = second compound 1 µM, first compound 0.0316 µM
[20] = second compound 1 µM, first compound 0.1 µM
[21] = second compound 1 µM, first compound 0.316 µM
[22] = second compound 1 µM, first compound 1 µM
[23] = second compound 1 µM, first compound 3.16 µM
[24] = second compound 1 µM, first compound 10 µM
[25] = second compound 3.16 µM, first compound 0.0316 µM
[26] = second compound 3.16 µM, first compound 0.1 µM
[27] = second compound 3.16 µM, first compound 0.316 µM
[28] = second compound 3.16 µM, first compound 1 µM
[29] = second compound 3.16 µM, first compound 3.16 µM
[30] = second compound 3.16 µM, first compound 10 µM
[31] = second compound 10 µM, first compound 0.0316 µM
[32] = second compound 10 µM, first compound 0.1 µM
[33] = second compound 10 µM, first compound 0.316 µM
[34] = second compound 10 µM, first compound 1 µM
[35] = second compound 10 µM, first compound 3.16 µM
[36] = second compound 10 µM, first compound 10 µM
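Further: spheroids exposed to drugs for 7 days before readout.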
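Wherever viability, T/C is given: 100% = DMSO vehicle control wells.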

COc1ccc([C@@H](O)c2cc(-c3ncnc4cc(N5CCOCC5)ccc34)c(F)cc2Cl)nn1 + CN1CCN(c2cc(C(=O)Nc3cc4cc(-c5cnn(C)c5)ccc4cn3)ccn2)CC1
4.95 µM: IC50 (second compound 0.0316 µM)
active: viability, T/C [13] 2.02% | viability, T/C [14] 2.01% | viability, T/C [15] 3% | viability, T/C [16] 2.2% | viability, T/C [17] 1.56% | viability, T/C [18] 2.98% | viability, T/C [19] 0.64% | viability, T/C [20] 0.77% | viability, T/C [21] 0.64% | viability, T/C [22] 0.69% | viability, T/C [23] 0.55% | viability, T/C [24] 2.27% | viability, T/C [25] 1.08% | viability, T/C [26] 2.43% | viability, T/C [27] 1.6% | viability, T/C [28] 1% | viability, T/C [29] 2.06% | viability, T/C [30] 1.3% | viability, T/C [31] 0.75% | viability, T/C [32] 0.99% | viability, T/C [33] 1.44% | viability, T/C [34] 1.58% | viability, T/C [35] 1.58% | viability, T/C [36] 1.69%
inactive: viability, T/C [1] 93.3% | viability, T/C [2] 90% | viability, T/C [3] 86% | viability, T/C [4] 84.2% | viability, T/C [5] 59.2% | viability, T/C [6] 35% | viability, T/C [7] 46.2% | viability, T/C [8] 43.4% | viability, T/C [9] 47% | viability, T/C [10] 42.8% | viability, T/C [11] 31.5% | viability, T/C [12] 21.1%
< 0.0316 µM: IC50 (second compound 0.1 µM) | IC50 (second compound 0.316 µM) | IC50 (second compound 1 µM) | IC50 (second compound 3.16 µM) | IC50 (second compound 10 µM)

COc1cccc2c1C(=O)c1c(O)c3c(c(O)c1C2=O)CC(O)(C(=O)CO)CC3OC1CC(N)C(O)C(C)O1 (stereo unspecified) + CN1CCN(c2cc(C(=O)Nc3cc4cc(-c5cnn(C)c5)ccc4cn3)ccn2)CC1
< 0.0316 µM: IC50 (second compound 0.0316 µM) | IC50 (second compound 0.1 µM) | IC50 (second compound 0.316 µM) | IC50 (second compound 1 µM) | IC50 (second compound 3.16 µM) | IC50 (second compound 10 µM)
inactive: viability, T/C [1] 31.7% | viability, T/C [2] 11.8% | viability, T/C [7] 19.7% | viability, T/C [8] 11.4%
active: viability, T/C [3] 7.2% | viability, T/C [4] 5.47% | viability, T/C [5] 0.87% | viability, T/C [6] 4.47% | viability, T/C [9] 8.05% | viability, T/C [10] 3.31% | viability, T/C [11] 1.71% | viability, T/C [12] 4.36% | viability, T/C [13] 1.75% | viability, T/C [14] 1.55% | viability, T/C [15] 1.57% | viability, T/C [16] 0.79% | viability, T/C [17] 1.62% | viability, T/C [18] 3.91% | viability, T/C [19] 0.91% | viability, T/C [20] 0.64% | viability, T/C [21] 0.76% | viability, T/C [22] 0.97% | viability, T/C [23] 1.41% | viability, T/C [24] 4.08% | viability, T/C [25] 1.18% | viability, T/C [26] 1.91% | viability, T/C [27] 0.9% | viability, T/C [28] 0.76% | viability, T/C [29] 2.8% | viability, T/C [30] 3.09% | viability, T/C [31] 0.55% | viability, T/C [32] 0.59% | viability, T/C [33] 1.41% | viability, T/C [34] 0.97% | viability, T/C [35] 0.51% | viability, T/C [36] 1.61%

O=c1[nH]cc(F)c(=O)[nH]1 + CN1CCN(c2cc(C(=O)Nc3cc4cc(-c5cnn(C)c5)ccc4cn3)ccn2)CC1
inactive: viability, T/C [1] 94.5% | viability, T/C [2] 89.6% | viability, T/C [3] 88.8% | viability, T/C [4] 83% | viability, T/C [5] 55.9% | viability, T/C [6] 49.4% | viability, T/C [7] 41.8% | viability, T/C [8] 52.2% | viability, T/C [9] 47.8% | viability, T/C [10] 41.9% | viability, T/C [11] 31.5% | viability, T/C [12] 29.9%
active: viability, T/C [13] 3.11% | viability, T/C [14] 2.75% | viability, T/C [15] 3.62% | viability, T/C [16] 2.92% | viability, T/C [17] 2.73% | viability, T/C [18] 2.79% | viability, T/C [19] 0.65% | viability, T/C [20] 0.89% | viability, T/C [21] 0.91% | viability, T/C [22] 0.83% | viability, T/C [23] 0.68% | viability, T/C [24] 0.7% | viability, T/C [25] 0.68% | viability, T/C [26] 1.36% | viability, T/C [27] 1.24% | viability, T/C [28] 0.98% | viability, T/C [29] 1.14% | viability, T/C [30] 1.44% | viability, T/C [31] 0.57% | viability, T/C [32] 0.53% | viability, T/C [33] 0.54% | viability, T/C [34] 0.77% | viability, T/C [35] 0.83% | viability, T/C [36] 0.73%
< 0.0316 µM: IC50 (second compound 0.1 µM) | IC50 (second compound 0.316 µM) | IC50 (second compound 1 µM) | IC50 (second compound 3.16 µM) | IC50 (second compound 10 µM)
8.77 µM: IC50 (second compound 0.0316 µM)
